Test results published in publication PMC5036617 (Toxicological Sciences, 2016).
Like-named read-outs stand apart in the source and are kept apart here. One block for each molecule: values may come before it.

What was measured:
[1] = cited from earlier work
[2] = tested on: HepG2 cells; experiment: Mitochondrial stress test, OCR analysis (Seahorse XFe96); format: cell-based; conditions: vs vehicle control
Procedure: HepG2 cells were collected by trypsinization and seeded on a collagen-coated XF 96-well cell culture microplate (25 000 cells/100 µl medium/well) and incubated overnight in glucose medium (37 °C, 5% CO2). All assays used ≤ 0.5% DMSO as a vehicle control. Cells were incubated for 1 h (37°C, 0% CO2) before culture medium was replaced by 175 µl of unbuffered Seahorse XF Base medium supplemented with glucose (25 mM), L-glutamine (2 mM), sodium pyruvate (1 mM), pre-warmed to 37 °C (pH 7.4). Prior to measurement of OCR, the Seahorse XFe96 instrument gently mixed the assay medium in each well for 10 min to enable the oxygen partial pressure to reach equilibrium. […] There were 9 OCR measurement cycles following compound injection and each measurement cycle consisted of a 3 min mix and 3 min measure. […] After stress test compound injections there were 3 measurement cycles before the injection of the next stress test compound. This enabled the calculation of basal respiration (OCR prior to oligomycin injection—non-mitochondrial OCR), proton leak (OCR after oligomycin injection—non-mitochondrial OCR), ATP-linked OCR (basal respiration—proton leak—non-mitochondrial OCR), maximal respiration (first injection after FCCP injection—non-mitochondrial OCR) and spare respiratory capacity (maximal respiration—basal respiration) (Figure 2).  FIG. 2 Representative control mitochondrial stress test trace. Mitochondrial stress test assays consisted of a series of compound injections into the cell culture microplate. […] Remaining injections consisted of oligomycin (ATP synthase inhibitor), FCCP (OXPHOS uncoupler), and rotenone/antimycin A (complex I and III inhibitors, respectively) with each followed by 3 measurement cycles. This series of manipulations enabled the calculation of parameters: basal, ATP-linked, maximum, and non-mitochondrial OCR, as well as proton leak. Each measurement cycle was a total of 6 min. Following completion of OCR assays, medium was removed from all wells and 20 µl of somatic cell ATP releasing agent was added to each well before shaking for 1 min and transfer of 10 µl of lysate to a 96-well plate and performance of a BCA assay according to the manufacturer’s instructions. Protein content per well was used to normalize OCR.

[3] = tested on: HepG2 cells; experiment: Cellular ATP content of HepG2 cells in glucose or galactose medium (ATP bioluminescent assay); format: cell-based; conditions: 2 h; for EC50ATPglu/EC50ATPgal: ratio ≥ 2 identifies a mitochondrial liability; for EC50: Homo sapiens, concentration reducing cellular ATP content by 50%
Procedure: Metabolic switching of cells was performed based on work previously described by ([[…] et al., 2015]). Briefly, 24 h prior to metabolic switch, HepG2 cells were collected by trypsinization and seeded on a collagen-coated flat-bottomed 96-well plate (20 000 cells/50 μl/well) and incubated (37°C, 5% CO2) overnight. […] Flutamide, 2-hydroxyflutamide and bicalutamide stock solutions were prepared in DMSO and diluted further in the appropriate medium. Compounds (50 μl) were then added to each well and cells were incubated for 2 h (37 °C, 5% CO2). All assays used ≤ 0.5% DMSO as a vehicle control. […] LDH content of the cells and supernatant was assessed using a cytotoxicity detection kit according to the manufacturer's instructions. ATP content was assessed using an ATP bioluminescent assay according to the manufacturer's instructions. Briefly, 10 μl of cell lysate or ATP standard curve solutions were added to a white-walled 96-well plate before addition of 40 μl ATP assay mix. Protein content of all wells was then assessed using a BCA assay applied to 10 μl of cell lysate and standards. LDH (490 nm), BCA (570 nm), and ATP assay luminescence were then measured using a plate reader (Varioskan, Thermo Scientific). ATP content readings were normalized to protein content. Experiments were conducted in a minimum of triplicate to ensure the reliability of single values. EC50 data were determined by nonlinear regression analysis using GraphPad Prism 5.0. Normality was assessed using a Shapiro-Wilk statistical test. Statistical significance was determined by an unpaired t-test for parametric data and a Mann-Whitney U test for non-parametric data using StatsDirect 2.7.9. P < .05 was taken as showing a significant difference.

SMILES: Nc1ccc([N+](=O)[O-])c(C(F)(F)F)c1 [3-trifluoromethyl-4-nitroaniline]
Cmax ([1]; plasma, metabolite after single 250 mg dose of flutamide, ref Schulz et al., 1988, read-out: maximum plasma concentration (Cmax)): 1310 nM

SMILES: C[C@](O)(CS(=O)(=O)c1ccc(F)cc1)C(=O)Nc1ccc(C#N)c(C(F)(F)F)c1 [(R)-bicalutamide]
half-life ([1]; single 50 mg dose, ref Cockshott, 2004): 140 h
Cmax ([1]; single 50 mg dose, ref Cockshott, 2004, read-out: Cmax): 1700 nM

EC50ATPglu/EC50ATPgal [3]: 1.44 (0.22)
EC50ATPglu/EC50ATPgal ([3]; listed as bicalutamide): ≤ 2
EC50 ([3]; galactose medium, read-out: EC50ATP (μM) Galactose): 103 µM
EC50 ([3]; glucose medium, read-out: EC50ATP (μM) Glucose): 148 µM
SMILES: CC(O)(CS(=O)(=O)c1ccc(F)cc1)C(=O)Nc1ccc(C#N)c(C(F)(F)F)c1 (stereo not shown) [Bicalutamide]
basal respiration ([2]; glucose medium, 7.8–500 µM): only caused a significant decrease in maximal respiration
maximal respiration ([2]; glucose medium, 7.8–500 µM): significant decrease
ATP-linked OCR as a percentage of maximal respiration ([2]; up to 500 µM): not observed
proton leak as a percentage of maximal respiration ([2]; up to 500 µM): not observed
spare respiratory capacity as a percentage of maximal respiration ([2]; up to 500 µM): not observed
decrease in ATP content in galactose medium compared with glucose medium ([3]; up to 300 µM): this was not the case for bicalutamide
